ChEMBL document CHEMBL2157886, “Synthesis and evaluation of ¹⁸F-labeled styryltriazole and resveratrol derivatives for β-amyloid plaque imaging” (J Med Chem, 2012)

Experiments:
[1] = Binding affinity to amyloid beta (1-42) aggregates
[2] = system: Brain; assay: Ratio of drug uptake in BALB/c mouse brain after 5 mins to 30 mins; assay type: ADME, tissue-based; settings: in vivo
[3] = Displacement of [125I]TZDM from amyloid beta (1 to 42) aggregates after 3 hrs by gamma counting
[4] = system: Heart; assay: Drug uptake in ICR mouse heart at 1.11 MBq, iv after 60 mins postinjection; assay type: ADME, organism-based; settings: in vivo, 1 h
[5] = system: Kidney; assay: Drug uptake in ICR mouse kidney at 1.11 MBq, iv after 30 mins postinjection; assay type: ADME, organism-based; settings: in vivo, 0.5 h
[6] = system: Blood; assay: Drug uptake in ICR mouse blood at 1.11 MBq, iv after 2 mins postinjection; assay type: ADME, organism-based; settings: in vivo
[7] = system: Spleen; assay: Drug uptake in ICR mouse spleen at 1.11 MBq, iv after 60 mins postinjection; assay type: ADME, organism-based; settings: in vivo, 1 h
[8] = system: Heart; assay: Drug uptake in ICR mouse heart at 1.11 MBq, iv after 120 mins postinjection; assay type: ADME, organism-based; settings: in vivo, 2 h
[9] = Octanol-water partition coefficient, log P of the compound; assay type: physicochemical
[10] = system: Brain; assay: Ratio of drug uptake in mouse brain after 2 mins to 60 mins; assay type: ADME, tissue-based; settings: in vivo
[11] = system: Muscle tissue; assay: Drug uptake in ICR mouse muscle at 1.11 MBq, iv after 60 mins postinjection; assay type: ADME, organism-based; settings: in vivo, 1 h
[12] = system: Brain; assay: Drug uptake in ICR mouse brain at 1.11 MBq, iv after 60 mins postinjection; assay type: ADME, organism-based; settings: in vivo, 1 h
[13] = system: Brain; assay: Drug uptake in ICR mouse brain at 1.11 MBq, iv after 30 mins postinjection; assay type: ADME, organism-based; settings: in vivo, 0.5 h
[14] = system: Lung; assay: Drug uptake in ICR mouse lung at 1.11 MBq, iv after 60 mins postinjection; assay type: ADME, organism-based; settings: in vivo, 1 h
[15] = system: Blood; assay: Drug uptake in ICR mouse blood at 1.11 MBq, iv after 120 mins postinjection; assay type: ADME, organism-based; settings: in vivo, 2 h
[16] = system: Kidney; assay: Drug uptake in ICR mouse kidney at 1.11 MBq, iv after 120 mins postinjection; assay type: ADME, organism-based; settings: in vivo, 2 h
[17] = system: Muscle tissue; assay: Drug uptake in ICR mouse muscle at 1.11 MBq, iv after 2 mins postinjection; assay type: ADME, organism-based; settings: in vivo
[18] = system: Femur; assay: Drug uptake in ICR mouse femur at 1.11 MBq, iv after 30 mins postinjection; assay type: ADME, organism-based; settings: in vivo, 0.5 h
[19] = system: Liver; assay: Drug uptake in ICR mouse liver at 1.11 MBq, iv after 60 mins postinjection; assay type: ADME, organism-based; settings: in vivo, 1 h
[20] = system: Femur; assay: Drug uptake in ICR mouse femur at 1.11 MBq, iv after 2 mins postinjection; assay type: ADME, organism-based; settings: in vivo
[21] = system: Liver; assay: Drug uptake in ICR mouse liver at 1.11 MBq, iv after 2 mins postinjection; assay type: ADME, organism-based; settings: in vivo
[22] = system: Liver; assay: Drug uptake in ICR mouse liver at 1.11 MBq, iv after 30 mins postinjection; assay type: ADME, organism-based; settings: in vivo, 0.5 h
[23] = system: Blood; assay: Drug uptake in ICR mouse blood at 1.11 MBq, iv after 60 mins postinjection; assay type: ADME, organism-based; settings: in vivo, 1 h
[24] = system: Femur; assay: Drug uptake in ICR mouse femur at 1.11 MBq, iv after 120 mins postinjection; assay type: ADME, organism-based; settings: in vivo, 2 h
[25] = system: Muscle tissue; assay: Drug uptake in ICR mouse muscle at 1.11 MBq, iv after 120 mins postinjection; assay type: ADME, organism-based; settings: in vivo, 2 h
[26] = system: Spleen; assay: Drug uptake in ICR mouse spleen at 1.11 MBq, iv after 2 mins postinjection; assay type: ADME, organism-based; settings: in vivo
[27] = system: Heart; assay: Drug uptake in ICR mouse heart at 1.11 MBq, iv after 30 mins postinjection; assay type: ADME, organism-based; settings: in vivo, 0.5 h
[28] = system: Blood; assay: Drug uptake in ICR mouse blood at 1.11 MBq, iv after 30 mins postinjection; assay type: ADME, organism-based; settings: in vivo, 0.5 h
[29] = system: Heart; assay: Drug uptake in ICR mouse heart at 1.11 MBq, iv after 2 mins postinjection; assay type: ADME, organism-based; settings: in vivo
[30] = system: Lung; assay: Drug uptake in ICR mouse lung at 1.11 MBq, iv after 30 mins postinjection; assay type: ADME, organism-based; settings: in vivo, 0.5 h
[31] = system: Lung; assay: Drug uptake in ICR mouse lung at 1.11 MBq, iv after 2 mins postinjection; assay type: ADME, organism-based; settings: in vivo
[32] = system: Spleen; assay: Drug uptake in ICR mouse spleen at 1.11 MBq, iv after 120 mins postinjection; assay type: ADME, organism-based; settings: in vivo, 2 h
[33] = system: Femur; assay: Drug uptake in ICR mouse femur at 1.11 MBq, iv after 60 mins postinjection; assay type: ADME, organism-based; settings: in vivo, 1 h
[34] = system: Kidney; assay: Drug uptake in ICR mouse kidney at 1.11 MBq, iv after 60 mins postinjection; assay type: ADME, organism-based; settings: in vivo, 1 h
[35] = system: Brain; assay: Ratio of drug uptake in mouse brain after 2 mins to 30 mins; assay type: ADME, tissue-based; settings: in vivo
[36] = system: Kidney; assay: Drug uptake in ICR mouse kidney at 1.11 MBq, iv after 2 mins postinjection; assay type: ADME, organism-based; settings: in vivo
[37] = system: Muscle tissue; assay: Drug uptake in ICR mouse muscle at 1.11 MBq, iv after 30 mins postinjection; assay type: ADME, organism-based; settings: in vivo, 0.5 h
[38] = system: Brain; assay: Drug uptake in ICR mouse brain at 1.11 MBq, iv after 120 mins postinjection; assay type: ADME, organism-based; settings: in vivo, 2 h
[39] = system: Spleen; assay: Drug uptake in ICR mouse spleen at 1.11 MBq, iv after 30 mins postinjection; assay type: ADME, organism-based; settings: in vivo, 0.5 h
[40] = system: Brain; assay: Drug uptake in ICR mouse brain at 1.11 MBq, iv after 2 mins postinjection; assay type: ADME, organism-based; settings: in vivo
[41] = system: Lung; assay: Drug uptake in ICR mouse lung at 1.11 MBq, iv after 120 mins postinjection; assay type: ADME, organism-based; settings: in vivo, 2 h
[42] = system: Liver; assay: Drug uptake in ICR mouse liver at 1.11 MBq, iv after 120 mins postinjection; assay type: ADME, organism-based; settings: in vivo, 2 h
[43] = system: Brain; assay: Drug uptake in mouse brain after 2 mins; assay type: ADME, tissue-based; settings: in vivo
[44] = Partition coefficient, log P of the compound; assay type: physicochemical; settings: octanol/water
[45] = system: Cynomolgus monkey; assay: Drug uptake in cynomolgus monkey brain after 1.5 mins; assay type: ADME, organism-based, Macaca fascicularis; settings: in vivo, 0.025 h
[46] = system: Cynomolgus monkey; assay: Drug uptake in cynomolgus monkey brain after 55 mins; assay type: ADME, organism-based, Macaca fascicularis; settings: in vivo

SMILES: CN(C)c1ccc(-c2nc3ccc([125I])cc3s2)cc1
- Ki [1]: 1.9 nM

SMILES: CNc1ccc(-c2cn3c(n2)sc2cc(OC)ccc23)cc1
- Ki [1]: 3.5 nM

SMILES: COc1ccc2c(c1)sc1nc(-c3ccc(N[11CH3])cc3)cn12
- Ratio [2]: 9.1

SMILES: COc1cc(/C=C/c2ccc(F)cc2)cc(OC)c1
- Ki [3]: 4.95 nM

SMILES: [11CH3]Nc1ccc(-c2nc3ccc(O)cc3s2)cn1
- Ki [1]: 19.7 nM

SMILES: CNc1ccc(-c2cn3c(n2)sc2cc(OCC[18F])ccc23)cc1
- Ratio [2]: 5.6

SMILES: COc1cc(/C=C/c2ccc(OCCC[18F])cc2)cc(OC)c1
- Drug uptake [4]: 0.56 % ID/g
- Drug uptake [5]: 2.86 % ID/g
- Drug uptake [6]: 2.08 % ID/g
- Drug uptake [7]: 0.84 % ID/g
- Drug uptake [8]: 0.61 % ID/g
- logP [9]: 2.84
- Ratio [10]: 2.9
- Drug uptake [11]: 0.74 % ID/g
- Drug uptake [12]: 1.13 % ID/g
- Drug uptake [13]: 2.09 % ID/g
- Drug uptake [14]: 1.08 % ID/g
- Drug uptake [15]: 0.38 % ID/g
- Drug uptake [16]: 1.65 % ID/g
- Drug uptake [17]: 3.67 % ID/g
- Drug uptake [18]: 5.24 % ID/g
- Drug uptake [19]: 2.47 % ID/g
- Drug uptake [20]: 1.88 % ID/g
- Drug uptake [21]: 14.35 % ID/g
- Drug uptake [22]: 5.99 % ID/g
- Drug uptake [23]: 0.43 % ID/g
- Drug uptake [24]: 16.15 % ID/g
- Drug uptake [25]: 1.07 % ID/g
- Drug uptake [26]: 3.15 % ID/g
- Drug uptake [27]: 1.35 % ID/g
- Drug uptake [28]: 0.98 % ID/g
- Drug uptake [29]: 7.22 % ID/g
- Drug uptake [30]: 1.72 % ID/g
- Drug uptake [31]: 8.17 % ID/g
- Drug uptake [32]: 0.97 % ID/g
- Drug uptake [33]: 9.73 % ID/g
- Drug uptake [34]: 2.76 % ID/g
- Ratio [35]: 1.6
- Drug uptake [36]: 10.46 % ID/g
- Drug uptake [37]: 1.27 % ID/g
- Drug uptake [38]: 1 % ID/g
- Drug uptake [39]: 1.23 % ID/g
- Drug uptake [40]: 3.26 % ID/g
- Drug uptake [41]: 1.16 % ID/g
- Drug uptake [42]: 4.47 % ID/g

SMILES: CN(C)c1ccc(/C=C/c2cn(CC[18F])nn2)cc1
- Drug uptake [4]: 0.81 % ID/g
- Drug uptake [5]: 7.32 % ID/g
- Drug uptake [6]: 3.35 % ID/g
- Drug uptake [7]: 0.6 % ID/g
- Drug uptake [8]: 0.71 % ID/g
- logP [9]: 1.74
- Ratio [10]: 10.3
- Drug uptake [11]: 0.51 % ID/g
- Drug uptake [12]: 0.52 % ID/g
- Drug uptake [13]: 0.68 % ID/g
- Drug uptake [14]: 1.04 % ID/g
- Drug uptake [15]: 0.98 % ID/g
- Drug uptake [16]: 1.86 % ID/g
- Drug uptake [17]: 2.44 % ID/g
- Drug uptake [18]: 0.7 % ID/g
- Drug uptake [19]: 3.47 % ID/g
- Drug uptake [20]: 1.49 % ID/g
- Drug uptake [21]: 12.5 % ID/g
- Drug uptake [22]: 7.59 % ID/g
- Drug uptake [23]: 1.27 % ID/g
- Drug uptake [24]: 1.54 % ID/g
- Drug uptake [25]: 0.4 % ID/g
- Drug uptake [26]: 2.36 % ID/g
- Drug uptake [27]: 1.32 % ID/g
- Drug uptake [28]: 2.16 % ID/g
- Drug uptake [29]: 3.8 % ID/g
- Drug uptake [30]: 1.75 % ID/g
- Drug uptake [31]: 5.73 % ID/g
- Drug uptake [32]: 0.49 % ID/g
- Drug uptake [33]: 0.94 % ID/g
- Drug uptake [34]: 3.7 % ID/g
- Ratio [35]: 7.9
- Drug uptake [36]: 7.32 % ID/g
- Drug uptake [37]: 0.74 % ID/g
- Drug uptake [38]: 0.48 % ID/g
- Drug uptake [39]: 0.85 % ID/g
- Drug uptake [40]: 5.38 % ID/g
- Drug uptake [41]: 0.76 % ID/g
- Drug uptake [42]: 3.47 % ID/g

SMILES: COc1cc(/C=C/c2ccc(OCCF)cc2)cc(OC)c1
- Ki [3]: 0.74 nM

SMILES: COc1cc(/C=C/c2ccc(OCCCF)cc2)cc(OC)c1
- Ki [3]: 0.49 nM

SMILES: CN(C)c1ccc(-c2nc3ccc([125I])cc3o2)cc1
- Ki [1]: 0.8 nM

SMILES: CN(C)c1ccc(/C=C/c2cn(CCF)nn2)cc1
- Ki [3]: 12.8 nM

SMILES: Oc1cc(O)cc(/C=C/c2ccc(F)cc2)c1
- Ki [3]: 39.7 nM

SMILES: CN(C)c1ccc(-c2cn3cc([125I])ccc3n2)cc1
- Drug uptake [43]: 2.88 %ID

SMILES: CNc1ccc(/C=C/c2ccc(OCCOCCOCC[18F])cc2)cc1 [FLORBETABEN F18]
- logP [44]: 2.41
- Drug uptake [43]: 7.77 % ID/g
- Ki [1]: 2.22 nM
- Ratio [35]: 4.89

SMILES: CNc1ccc(/C=C/c2ccc(OCCOCCOCC[18F])nc2)cc1 [FLORBETAPIR F 18]
- Ratio [10]: 3.9
- logP [44]: 2.41
- Ki [1]: 2.87 nM

SMILES: CNc1ccc(-c2cc3cc(O)ccc3o2)c([18F])n1 [FLUTAFURANOL F 18]
- Drug uptake [45]: 5.2 %ID
- Drug uptake [46]: 0.5 %ID

SMILES: CNc1ccc(-c2nc3ccc(O)cc3s2)cc1[18F] [FLUTEMETAMOL F 18]
- Ki [1]: 0.74 nM
